# Where “and” joins values, the source holds several entries; their conditions need not be identical. Equal entries are not always repeated. Entries after “also recorded” stand apart in the source; their conditions may differ.
# How the values were obtained:
# hGLP-1R = hGLP-1R (Homo sapiens, UniProt P43220); assay: Calcium mobilization / calcium fluxes in HEK cells stably expressing hGLP-1R (ExviTech flow cytometry); settings: 10 μM compound, then EC25 of GLP-1
# [1] = In vivo pharmacokinetic study in male Sprague Dawley rats; settings: rat, plasma
# CYP2C9 = CYP2C9 (Homo sapiens, UniProt P11712); assay: P450 cytochrome inhibition, CYP2C9; type: in vitro ADME
# Chain of CYP2C9 (P11712 whole entry, canonical isoform): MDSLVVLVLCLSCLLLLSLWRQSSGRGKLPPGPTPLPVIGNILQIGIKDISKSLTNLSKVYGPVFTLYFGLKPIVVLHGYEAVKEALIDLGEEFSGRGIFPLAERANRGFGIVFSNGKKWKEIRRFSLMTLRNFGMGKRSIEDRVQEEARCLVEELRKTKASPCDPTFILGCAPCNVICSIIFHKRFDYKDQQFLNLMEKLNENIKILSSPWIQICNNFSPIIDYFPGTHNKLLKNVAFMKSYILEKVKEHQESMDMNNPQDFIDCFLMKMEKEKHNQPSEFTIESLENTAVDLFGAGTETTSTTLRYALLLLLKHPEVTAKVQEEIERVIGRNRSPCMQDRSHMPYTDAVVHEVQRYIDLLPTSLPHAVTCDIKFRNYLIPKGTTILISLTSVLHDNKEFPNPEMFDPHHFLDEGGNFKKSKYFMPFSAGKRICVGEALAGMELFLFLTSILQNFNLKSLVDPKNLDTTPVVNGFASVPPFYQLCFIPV
# Experimental: Inhibition of P450 cytochrome isoforms. […] Effect on hERG channel. […] Patch clamp experiments were carried out using […]® robot. […] After S27
# male Wistar rats [2] = assay: Anxiety-like behavior in the elevated plus-maze; type: in vivo, rat; settings: 9 1 and 0.5 mg/kg ip
# Experimental: Animals naïve to the maze were manipulated for 7 days before testing. The day of the experiment, 30 min after ip injection of 9, animals were placed in the center of the maze, facing an open arm. The number of entries and the % of time spent in the exposed arms of the maze were measured. Test length was 5 min and animals were not retested.
# hERG channel = hERG channel (Homo sapiens, UniProt Q12809); assay: hERG channel inhibition, whole cell patch clamp in hERG-transfected CHO cells
# Chain of hERG channel (Q12809 whole entry): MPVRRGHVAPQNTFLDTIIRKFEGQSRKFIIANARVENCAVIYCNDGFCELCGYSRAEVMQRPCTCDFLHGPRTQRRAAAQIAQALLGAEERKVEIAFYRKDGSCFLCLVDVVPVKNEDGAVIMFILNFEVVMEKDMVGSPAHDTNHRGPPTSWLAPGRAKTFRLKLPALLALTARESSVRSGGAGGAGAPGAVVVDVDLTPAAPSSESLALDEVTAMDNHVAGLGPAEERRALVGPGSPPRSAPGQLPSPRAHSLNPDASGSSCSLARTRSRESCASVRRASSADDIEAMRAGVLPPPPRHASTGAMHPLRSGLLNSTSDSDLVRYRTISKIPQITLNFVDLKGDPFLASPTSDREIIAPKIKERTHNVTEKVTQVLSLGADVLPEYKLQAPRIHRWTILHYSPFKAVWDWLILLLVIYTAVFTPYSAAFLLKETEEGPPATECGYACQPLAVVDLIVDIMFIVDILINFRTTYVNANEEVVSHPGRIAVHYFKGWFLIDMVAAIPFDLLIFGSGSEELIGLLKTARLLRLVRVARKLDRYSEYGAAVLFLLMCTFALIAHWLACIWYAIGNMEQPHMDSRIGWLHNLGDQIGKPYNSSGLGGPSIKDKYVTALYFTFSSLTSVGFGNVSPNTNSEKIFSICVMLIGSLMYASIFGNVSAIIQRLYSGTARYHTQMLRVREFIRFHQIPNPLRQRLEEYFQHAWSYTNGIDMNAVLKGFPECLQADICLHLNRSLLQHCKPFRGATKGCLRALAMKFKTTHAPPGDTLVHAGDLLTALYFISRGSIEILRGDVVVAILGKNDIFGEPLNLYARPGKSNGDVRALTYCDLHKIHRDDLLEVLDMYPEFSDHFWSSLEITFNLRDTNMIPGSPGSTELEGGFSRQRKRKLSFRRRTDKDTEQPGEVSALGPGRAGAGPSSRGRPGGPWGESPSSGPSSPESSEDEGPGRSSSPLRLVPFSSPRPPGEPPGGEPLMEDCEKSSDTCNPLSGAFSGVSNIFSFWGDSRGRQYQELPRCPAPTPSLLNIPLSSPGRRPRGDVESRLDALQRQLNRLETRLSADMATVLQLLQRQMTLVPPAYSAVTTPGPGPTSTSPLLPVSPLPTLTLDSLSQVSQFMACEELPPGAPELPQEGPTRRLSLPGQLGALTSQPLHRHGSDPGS
# Experimental: (tail) current was investigated using Chinese Hamster Ovary (CHO) cells stably transfected with
# hERG, employing the whole cell patch clamp technique.
# hERG inhibition. Patch clamp experiments were carried out using FlyscreenP® robot. CHO cells
# choline chloride, 5 mM KCl, 1 mM MgCl2(H2O)6, 10 mM HEPES, 10 mM glucose, pH 7.4) to give
# cell density of ~ 0.5 million per mL, and transferred to the cell mixer on Flyscreen® 8500 robot
# which keeps cell suspension in a ready-for-use condition.
# KMeSO3, 5 mM MgCl2(H2O)6, 10 mM HEPES-KOH, 5 mM EGTA, 5 mM K2ATP at pH 7.2. Ionic
# currents from hERG transfected cells were measured in the whole cell configuration. Once the whole
# the hERG current. An EC NaCl solution (120 mM NaCl, 5 mM KCl, 1.8 mM CaCl2, 10 mM
# HEPES, 10 mM glucose, pH 7.4) was added for control readings, which were measured for ~ 360 s
# followed by compound addition.
# continuously for ~ 600 seconds. For analysis purposes, the current of interest (IKr) was considered.
# Results were expressed as absolute values and percent change from control. Percent inhibition was
# calculated by comparing the IKr current before and after addition of test compound once a steady-
# state current had been attained.
# male Wistar rats [3] = assay: Feeding inhibition in 12-h fasted male Wistar rats (icv)
# panel of 54 GPCRs = assay: Selectivity panel of binding assays (Eurofins Cerep); settings: 10 μM; all 54 receptors
# Text: (§1) 3. Binding to off-target receptors
# (§2) Eurofins Cerep (France). Significant binding affinity was defined as a displacement of target
# selective radioligand greater than 50% using a concentration of 10 µM of 9. […]
# wild-type C57BL/6N mice = assay: Glucose tolerance test in wild-type mice; type: in vivo, mouse
# Experimental: (§3) Glucose tolerance test was carried out both in Wistar and Zucker (fa/fa) obese male rats and in wild-type and GLP-1R KO mice, by injecting an ip glucose load of 2 g/kg body weight (diluted in saline) or by oral administration of a glucose solution (2 g/kg in a volume of water of […] body weight). Animals were food-deprived overnight (12 h fasting) before testing. Thirty minutes before glucose load, animals received by ip administration the compound being tested dissolved in saline/DMSO (0.2%) as vehicle. Tail blood samples were collected before (0 min) and 5, 10, 15, 30, 45, 60, and 120 min after glucose administration. Glucose was determined using a commercial glucometer (Accu-check, Roche Diagnostic).
# [4] = Microsomal stability test as summarised in the text (species not given in the sentence); type: in vitro ADME; settings: rat, dog, human, liver microsomes; text summary of Table S6; read-out: half-life time in a microsomal stability test
# NK3 (h) = molecular target: T1, NK3 (h) (Homo sapiens, UniProt P29371); assay: biochemical; set-up: radioligand displacement binding panel (Eurofins Cerep), % inhibition of control specific binding; settings: antagonist radioligand; read-out: % Inhibition of Control Specific Binding
# T1 construct: gene TACR3
# Text: as §1, §2
# (§4) selective radioligand greater than 50% using a concentration of 10 µM of 9.
# A3 (h) = molecular target: T2, A3 (h) (Homo sapiens, UniProt P0DMS8); assay: biochemical; set-up: radioligand displacement binding panel (Eurofins Cerep), % inhibition of control specific binding; settings: agonist radioligand; read-out: % Inhibition of Control Specific Binding
# T2 construct: gene ADORA3
# T2 sequence (P0DMS8 whole entry): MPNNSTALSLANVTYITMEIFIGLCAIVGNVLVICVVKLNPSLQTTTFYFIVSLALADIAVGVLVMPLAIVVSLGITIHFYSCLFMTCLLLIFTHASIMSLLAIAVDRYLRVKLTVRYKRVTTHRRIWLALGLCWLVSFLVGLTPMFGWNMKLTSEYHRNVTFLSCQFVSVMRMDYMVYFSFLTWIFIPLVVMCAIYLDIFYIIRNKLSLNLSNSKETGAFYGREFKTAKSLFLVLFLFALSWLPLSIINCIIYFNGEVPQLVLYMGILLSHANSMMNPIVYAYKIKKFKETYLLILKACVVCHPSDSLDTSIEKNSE
# Text: as §1, §2, §4
# H2 (h) = molecular target: T3, H2 (h) (Homo sapiens, UniProt P25021); assay: biochemical; set-up: radioligand displacement binding panel (Eurofins Cerep), % inhibition of control specific binding; settings: antagonist radioligand; read-out: % Inhibition of Control Specific Binding
# T3 construct: gene HRH2
# T3 sequence (P25021 whole entry): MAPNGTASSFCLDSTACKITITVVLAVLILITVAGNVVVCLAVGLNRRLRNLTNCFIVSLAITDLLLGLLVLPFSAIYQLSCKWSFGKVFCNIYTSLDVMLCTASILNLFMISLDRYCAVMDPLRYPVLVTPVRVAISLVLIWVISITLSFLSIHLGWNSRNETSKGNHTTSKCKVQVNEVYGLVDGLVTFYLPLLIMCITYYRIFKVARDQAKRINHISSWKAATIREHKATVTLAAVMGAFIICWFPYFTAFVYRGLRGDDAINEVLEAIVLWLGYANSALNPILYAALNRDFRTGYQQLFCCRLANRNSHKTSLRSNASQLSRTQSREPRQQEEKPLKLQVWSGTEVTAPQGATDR
# Text: as §1, §2, §4
# GAL2 (h) = molecular target: T4, GAL2 (h) (Homo sapiens, UniProt O43603); assay: biochemical; set-up: radioligand displacement binding panel (Eurofins Cerep), % inhibition of control specific binding; settings: agonist radioligand; read-out: % Inhibition of Control Specific Binding
# T4 construct: gene GALR2
# Text: as §1, §2, §4
# B2 (h) = molecular target: T5, B2 (h) (Homo sapiens, UniProt P30411); assay: biochemical; set-up: radioligand displacement binding panel (Eurofins Cerep), % inhibition of control specific binding; settings: agonist radioligand; read-out: % Inhibition of Control Specific Binding
# T5 construct: gene BDKRB2
# T5 sequence (P30411 whole entry): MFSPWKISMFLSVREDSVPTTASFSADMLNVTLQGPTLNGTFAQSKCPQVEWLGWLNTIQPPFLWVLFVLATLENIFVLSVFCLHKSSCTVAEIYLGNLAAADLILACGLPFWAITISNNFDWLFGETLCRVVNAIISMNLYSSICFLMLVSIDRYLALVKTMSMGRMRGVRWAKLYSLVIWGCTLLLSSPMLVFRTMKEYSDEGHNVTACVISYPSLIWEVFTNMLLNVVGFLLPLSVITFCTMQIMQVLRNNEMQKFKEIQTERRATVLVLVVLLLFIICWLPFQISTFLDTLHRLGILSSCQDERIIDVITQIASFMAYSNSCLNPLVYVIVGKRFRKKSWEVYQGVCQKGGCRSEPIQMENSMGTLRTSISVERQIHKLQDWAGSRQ
# Text: as §1, §2, §4
# A1 (h) = molecular target: T6, A1 (h) (Homo sapiens, UniProt P30542); assay: biochemical; set-up: radioligand displacement binding panel (Eurofins Cerep), % inhibition of control specific binding; settings: antagonist radioligand; read-out: % Inhibition of Control Specific Binding
# T6 construct: gene ADORA1
# T6 sequence (P30542 whole entry): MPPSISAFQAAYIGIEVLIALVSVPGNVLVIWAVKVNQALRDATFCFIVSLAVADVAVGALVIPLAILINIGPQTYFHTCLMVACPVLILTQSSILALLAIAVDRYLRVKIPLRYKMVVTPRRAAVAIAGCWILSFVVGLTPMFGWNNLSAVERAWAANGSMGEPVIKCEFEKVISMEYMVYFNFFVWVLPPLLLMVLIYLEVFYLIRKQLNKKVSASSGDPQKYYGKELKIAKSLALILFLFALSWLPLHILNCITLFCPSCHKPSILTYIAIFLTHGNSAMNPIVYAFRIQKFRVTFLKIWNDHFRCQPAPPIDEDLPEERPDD
# Text: as §1, §2, §4
# β1 (h) = molecular target: T7, β1 (h) (Homo sapiens, UniProt P08588); assay: biochemical; set-up: radioligand displacement binding panel (Eurofins Cerep), % inhibition of control specific binding; settings: agonist radioligand; read-out: % Inhibition of Control Specific Binding
# T7 construct: gene ADRB1
# Text: as §1, §2, §4
# MT1 (ML1A) (h) = molecular target: T8, MT1 (ML1A) (h) (Homo sapiens, UniProt P48039); assay: biochemical; set-up: radioligand displacement binding panel (Eurofins Cerep), % inhibition of control specific binding; settings: agonist radioligand; read-out: % Inhibition of Control Specific Binding
# T8 construct: gene MTNR1A
# Text: as §1, §2, §4
# CCR1 (h) = CCR1 (h) (Homo sapiens, UniProt P32246); assay: biochemical; set-up: radioligand displacement binding panel (Eurofins Cerep), % inhibition of control specific binding; settings: agonist radioligand; read-out: % Inhibition of Control Specific Binding
# Text: as §1, §2, §4
# NK2 (h) = molecular target: T9, NK2 (h) (Homo sapiens, UniProt P21452); assay: biochemical; set-up: radioligand displacement binding panel (Eurofins Cerep), % inhibition of control specific binding; settings: agonist radioligand; read-out: % Inhibition of Control Specific Binding
# T9 construct: gene TACR2
# T9 sequence (P21452 whole entry): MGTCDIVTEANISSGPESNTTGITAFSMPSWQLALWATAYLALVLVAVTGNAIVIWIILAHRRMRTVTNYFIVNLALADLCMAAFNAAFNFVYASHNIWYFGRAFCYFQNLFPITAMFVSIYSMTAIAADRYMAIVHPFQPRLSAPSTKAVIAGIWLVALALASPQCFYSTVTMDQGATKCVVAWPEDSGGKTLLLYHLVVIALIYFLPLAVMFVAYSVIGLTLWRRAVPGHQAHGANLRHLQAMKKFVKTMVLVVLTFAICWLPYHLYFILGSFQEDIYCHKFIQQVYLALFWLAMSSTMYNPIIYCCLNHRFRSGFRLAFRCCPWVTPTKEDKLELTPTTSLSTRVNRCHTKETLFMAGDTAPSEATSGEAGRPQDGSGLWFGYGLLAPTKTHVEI
# Text: as §1, §2, §4
# H1 (h) = molecular target: T10, H1 (h) (Homo sapiens, UniProt P35367); assay: biochemical; set-up: radioligand displacement binding panel (Eurofins Cerep), % inhibition of control specific binding; settings: antagonist radioligand; read-out: % Inhibition of Control Specific Binding
# T10 construct: gene HRH1
# T10 sequence (P35367 whole entry): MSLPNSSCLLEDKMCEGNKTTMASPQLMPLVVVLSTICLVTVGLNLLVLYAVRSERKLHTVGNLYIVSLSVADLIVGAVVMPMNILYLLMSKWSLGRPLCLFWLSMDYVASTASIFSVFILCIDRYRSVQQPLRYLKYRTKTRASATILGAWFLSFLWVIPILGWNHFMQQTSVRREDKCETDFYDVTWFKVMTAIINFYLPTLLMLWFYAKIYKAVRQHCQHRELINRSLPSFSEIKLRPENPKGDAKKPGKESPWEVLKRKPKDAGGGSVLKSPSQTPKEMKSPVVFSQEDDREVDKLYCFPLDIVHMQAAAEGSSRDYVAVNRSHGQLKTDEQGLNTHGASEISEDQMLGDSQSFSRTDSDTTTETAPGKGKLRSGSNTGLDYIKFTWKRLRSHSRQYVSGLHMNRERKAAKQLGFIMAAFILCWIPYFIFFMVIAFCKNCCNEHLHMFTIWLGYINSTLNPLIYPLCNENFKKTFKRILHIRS
# Text: as §1, §2, §4
# A2A (h) = molecular target: T11, A2A (h) (Homo sapiens, UniProt P29274); assay: biochemical; set-up: radioligand displacement binding panel (Eurofins Cerep), % inhibition of control specific binding; settings: agonist radioligand; read-out: % Inhibition of Control Specific Binding
# T11 construct: gene ADORA2A
# T11 sequence (P29274 whole entry): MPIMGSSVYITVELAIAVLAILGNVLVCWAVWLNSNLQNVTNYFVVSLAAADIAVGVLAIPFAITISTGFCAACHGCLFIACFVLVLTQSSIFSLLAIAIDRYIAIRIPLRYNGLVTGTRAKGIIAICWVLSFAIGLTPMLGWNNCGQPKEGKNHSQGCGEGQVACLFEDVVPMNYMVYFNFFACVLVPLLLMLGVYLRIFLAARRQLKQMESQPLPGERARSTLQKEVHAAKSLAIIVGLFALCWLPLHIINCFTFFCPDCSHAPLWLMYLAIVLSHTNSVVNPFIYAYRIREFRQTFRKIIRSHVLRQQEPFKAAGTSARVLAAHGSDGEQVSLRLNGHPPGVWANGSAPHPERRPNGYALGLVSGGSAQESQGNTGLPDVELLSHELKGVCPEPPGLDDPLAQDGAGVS
# Text: as §1, §2, §4
# GLP-1R KO mice = assay: Glucose tolerance test in GLP-1R KO mice; type: in vivo, mouse; settings: (S)-9; 2 g/kg glucose
# Experimental: as §3
# [5] = test system: Zucker (fa/fa) obese male rats; assay: Glucose tolerance test in diabetic fatty Zucker rats; type: in vivo, rat; settings: (S)-9 0.4 mg/kg intragastrically; ip 2 g/kg glucose
# INS-1 β-cells = assay: Insulin secretion by rat INS-1 / INS-1E insulinoma cells; type: cell-based; settings: INS-1E cells, 0.5 mM glucose, single representative experiment
# Experimental: The incubation was done using two types of culture media, defined as low glucose (0.5–3 mM) and high glucose (15 mM). […] Incubation with compounds lasted 30 min, and then the media was collected, centrifuged at 4 °C for 2 min until assayed for insulin using commercial ELISA kit.
# EndoC-βH1 cells = assay: Insulin secretion by human pancreatic EndoC-βH1 cells; type: cell-based; settings: high glucose concentration
# Experimental: Both cell lines were cultured in RPMI 1640 medium supplemented with 10% fetal calf serum as described. Cell monolayers were incubated at 37 °C in a 7.5% CO2 atmosphere. For insulin secretion studies, cells were detached, washed once with glucose-free medium and placed in 48 multiwell plates (100,000 cells per well) and kept in glucose-free medium for 1.5 h prior to incubation with drugs. The incubation was done using two types of culture media, defined as low glucose (0.5–3 mM) and high glucose (15 mM). […] Incubation with compounds lasted 30 min, and then the media was collected, centrifuged at 4 °C for 2 min until assayed for insulin using commercial ELISA kit.
# Wistar rats = assay: Glucose tolerance test in Wistar rats; type: in vivo, rat; settings: (S)-9 0.04 and 0.2 mg/kg ip; ip 2 g/kg glucose
# Experimental: as §3
# Chain of hGLP-1R (P43220 24-463): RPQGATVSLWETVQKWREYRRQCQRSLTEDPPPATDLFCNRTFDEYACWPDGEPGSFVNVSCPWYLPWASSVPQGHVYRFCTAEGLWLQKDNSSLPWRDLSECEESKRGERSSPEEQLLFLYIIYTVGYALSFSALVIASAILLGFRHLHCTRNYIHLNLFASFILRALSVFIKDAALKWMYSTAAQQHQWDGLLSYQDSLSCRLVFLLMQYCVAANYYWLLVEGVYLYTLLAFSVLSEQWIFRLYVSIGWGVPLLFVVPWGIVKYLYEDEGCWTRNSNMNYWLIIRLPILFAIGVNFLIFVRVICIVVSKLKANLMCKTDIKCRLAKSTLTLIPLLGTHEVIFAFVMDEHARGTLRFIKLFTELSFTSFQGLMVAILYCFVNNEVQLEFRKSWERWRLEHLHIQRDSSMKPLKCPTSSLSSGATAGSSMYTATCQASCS
smiles,measurement,setting,value
O=S(=O)(NC1CCN(Cc2nc(-c3ccc(C(F)(F)F)cc3)no2)CC1)c1ccccc1Cl [compound 1],result of ExviTech library screening,hGLP-1R,putative modulator of the GLP-1R
"FC(F)(F)c1ccc(-c2noc(CN3CCCC(CN4CCOCC4)C3)n2)cc1 (stereo not shown) [compound 9, 4-{[1-({3-[4-(Trifluoromethyl)phenyl]-1,2,4-oxadiazol-5-yl}methyl)piperidin-3-yl]methyl}morpholine]",AUC(0-inf) at 24 h,"[1]; IV 2 mg/kg, mean ± SD, N = 4",311 ± 12.9 ng·h/mL
same,AUC(0-t) at 24 h,"[1]; IV 2 mg/kg, mean ± SD, N = 4",278 ± 20 ng·h/mL
same,C0,"[1]; IV 2 mg/kg, mean ± SD, N = 4",492 ± 81.9 ng/mL
same,clearance at 24 h,"[1]; IV 2 mg/kg, mean ± SD, N = 4",107 ± 4.58 mL/min/kg
same,half-life at 24 h,"[1]; IV 2 mg/kg, mean ± SD, N = 4",195 ± 61.8 min
same,Vd at 24 h,"[1]; IV 2 mg/kg, mean ± SD, N = 4, read-out: Vss",18.1 ± 6.62 L/kg
same,bioavailability,[1]; PO 10 mg/kg vs IV 2 mg/kg,39%
same,bioavailability at 24 h,[1]; PO 10 mg/kg vs IV 2 mg/kg,38.9 ± 9.52%
same,AUC(0-inf) at 24 h,"[1]; PO 10 mg/kg, mean ± SD, N = 4",644 ± 267 ng·h/mL
same,AUC(0-t) at 24 h,"[1]; PO 10 mg/kg, mean ± SD, N = 4",540 ± 132 ng·h/mL
same,Cmax at 24 h,"[1]; PO 10 mg/kg, mean ± SD, N = 4",185 ± 14.5 ng/mL
same,Tmax at 24 h,"[1]; PO 10 mg/kg, mean ± SD, N = 4",49.8 ± 17.4 min
same,half-life at 24 h,"[1]; PO 10 mg/kg, mean ± SD, N = 4",172 ± 113 min
same,Tmax,"[1]; oral route, 10 mg/kg, read-out: time of maximal concentration post-ingestion (converted)",50 min
same,IC50,CYP2C9,80 µM
same,anxiety-like behavior in the elevated plus-maze,male Wistar rats [2],does not induce anxiety-like behavior; also recorded: did not result in the emergence of anxiety-like behaviors nor hypolocomotion
same,IC50,hERG channel,4.13 µM
same,hERG inhibition (in words),hERG channel,weak inhibitor of the hERG channel at micromolar concentrations
same,"Inhibition (%), Mean",hERG channel; 1 µM,29.7%
same,"Inhibition (%), single values",hERG channel; 1 µM,27.0% and 32.3%
same,"Inhibition (%), Mean",hERG channel; 10 µM,62.3%
same,"Inhibition (%), single values",hERG channel; 10 µM,52.1% and 72.5%
same,"Inhibition (%), Mean",hERG channel; 30 µM,80.5%
same,"Inhibition (%), single values",hERG channel; 30 µM,78.0% and 83.0%
same,potentiation of feeding inhibition induced by exendin-4 (in words),male Wistar rats [3]; 9 1 μg/kg icv,potentiates; also recorded: potentiate the feeding inhibition; also recorded: enhancing satiety induced by the GLP-1R agonist exendin-4
same,displacement of the specific binding,panel of 54 GPCRs,lower than 50%
same,glucose handling after ip glucose load,"wild-type C57BL/6N mice; 9 0.1 mg/kg ip, ip 2 g/kg glucose, 0.1 mg/kg",improved glucose handling
same,glucose handling after oral glucose load,"wild-type C57BL/6N mice; 9 0.1 or 1 mg/kg ip, oral 2 g/kg glucose",improved glucose handling
same,half-life at 1 µM,[4],> 30 min
same,inhibition at 10 µM,NK3 (h),-8%
same,inhibition at 10 µM,A3 (h),-20%
same,inhibition at 10 µM,H2 (h),-13%
same,inhibition at 10 µM,GAL2 (h),0%
same,inhibition at 10 µM,B2 (h),8%
same,inhibition at 10 µM,A1 (h),5%
same,inhibition at 10 µM,β1 (h),3%
same,inhibition at 10 µM,MT1 (ML1A) (h),-3%
same,inhibition at 10 µM,CCR1 (h),4%
same,inhibition at 10 µM,NK2 (h),19%
same,inhibition at 10 µM,H1 (h),-4%
same,inhibition at 10 µM,A2A (h),-3%
"FC(F)(F)c1ccc(-c2noc(CN3CCC[C@@H](CN4CCOCC4)C3)n2)cc1 [(S)-9, (+)-4-{[(3S)-1-({3-[4-(Trifluoromethyl)phenyl]-1,2,4-oxadiazol-5-yl}methyl)piperidin-3-yl]methyl}morpholine]",glucose handling after glucose load,GLP-1R KO mice,devoid; also recorded: inactive
same,"glucose handling after glucose load, oral dosing",[5],orally active
same,duration of the feeding effect after injection,male Wistar rats [3]; (S)-9 5 μg/kg icv,up to 2 h
same,effect on feeding,male Wistar rats [3]; (S)-9 5 μg/kg icv,decreased feeding
same,Insulin secreted,INS-1 β-cells; 0.1 nM test substance,29 ng/mL
same,Insulin secreted,INS-1 β-cells; 1 nM test substance,39 ng/mL
same,Insulin secreted,INS-1 β-cells; 10 nM test substance,37 ng/mL
same,potentiation of insulin secretion stimulated by GLP-1 (in words),EndoC-βH1 cells,similarly potentiate insulin secretion stimulated by GLP-1
same,glucose handling after glucose load,Wistar rats,clearly improved glucose handling
same,glucose handling after glucose load,"wild-type C57BL/6N mice; (S)-9, 2 g/kg glucose, 12-h fasted",improvement
